Source: US8273575B2, “Methods for the diagnosis, risk assessment, and monitoring of autism spectrum disorders” (Phenomenome Discoveries Inc., priority 2007, dated 2012)

Experiments:
[1] = tested on: autism biomarkers; assay: Monitoring the biochemical efficacy of carnitine supplementation on autism biomarkers in plasma (FIG. 5); format: in vivo, human
From the text: FIG. 5 is a graph illustrating levels of key DHA and AA containing PlsEtn and VLCFA containing PtdEtn in longitudinal samples collected over the course of one year from autistic subjects taking carnitine supplements [n=12 (4×3)] vs. subjects not taking carnitine supplements [n=33 (11×3)] and vs. controls [n=30 (10×3)]. Values control-normalized and expressed as mean+/−SEM of the ratio to PtdEtn 16:0/18:0, *, p<0.05 vs. control, #, p<0.05 vs. autism, no carnitine; and
(§1) Sample Collection. Three plasma samples were collected from 15 clinically diagnosed ASD subjects and 12 non-ASD controls over a 12 month period (six month interval between samplings). Four subjects were treated with carnitine (A09, A11, A13, A15). Table 1 outlines the clinical characteristics of the subjects studied. Social cognition scores were determined using methods known in the art.
LC-MS/MS flow injection analyses. Analyses were performed using a linear ion trap mass spectrometer (4000 Q TRAP, Applied Biosystems) coupled with an Agilent 1100 LC system. Sample was prepared by adding 15 μL of internal standard (5 μg/mL of (24-^13C)-Cholic Acid (Cambridge Isotope Laboratories, Andover, Mass.) in methanol) to 120 μL ethyl acetate fraction of each sample. 100 μl of sample was injected by flow injection analysis (FIA), and monitored under negative APCI mode. The method was based on multiple reaction monitoring (MRM) of one parent/fragment transition for each metabolite and (24-^13C)-Cholic Acid. Each transition was scanned for 70 ms. 10% EtOAc in MeOH at a flow rate of 360 μl/min was used as the mobile phase. The source parameters were set as follows: CUR: 10.0, CAD: 8, NC: −4.0, TEM: 400, GS1: 30, GS2: 50, interface heater on. The compound parameters were set as follows: DP: −120.0, EP: −10, NC: −4.0, CE: −40, CXP: −15. A standard curve was generated for all analytes to verify instrument linearity by serial dilution of a healthy normal serum extract with constant concentration of (24-^13C)-Cholic Acid. All samples were analyzed in a randomized blinded manner and were bracketed by known serum standard dilutions. All standard curves had r^2 values >0.98.
(§2) Acetyl-carnitine is not approved nor has it been proven to be effective in ASD. To illustrate the utility of a method of monitoring ASD therapy as disclosed herein, the diagnostic ASD biomarkers described above were quantified in subjects taking acetyl-carnitine supplements. FIG. 4 illustrates the carnitine and acetyl carnitine levels in all of the subjects. […] All of the subjects taking acetyl-carnitine had elevated levels of both carnitine and acetyl-carnitine.
Comparison of the plasma levels of the eight most descriptive metabolites between the carnitine+/−autistic subjects and controls, determined that the effect of carnitine on the autism biomarkers was striking (FIG. 5). […] However, the rate of elongation and desaturation of mono- and di-unsaturated fatty acid precursors appear to be unaffected and a compensatory elevation in AA appears to occur.

[2] = Plasma carnitine and O-acetylcarnitine levels in longitudinal samples of autistic subjects versus controls (FIG. 4); format: in vivo, human; conditions: all ASD subjects taking acetyl-carnitine
From the text: FIG. 4 is a graph illustrating levels of carnitine and O-acetylcarnitine in longitudinal samples collected over the course of one year from individual subjects diagnosed with autism versus controls. Values are control normalized and expressed as mean+/−SEM, n=3 for each child, n=30 for controls, *, p<0.05 vs. control;
as §1, §2

[3] = autistic subjects taking carnitine vs not taking and vs controls

## C[N+](C)(C)CC(O)CC(=O)[O-] (centres unmarked) [carnitine]
[1]
  Levels of AA-PtdEtn (20:4) in subjects taking carnitine: significantly elevated
[1]; [3]
  Effect on DHA-PlsEtn: Complete normalization
  Effect on DHA-PtdEtn: Complete normalization
  Effect on saturated VLCFA (28:0): Complete normalization
  Effect on the DHA precursor (24:6): Complete normalization
[1]; carnitine supplementation
  Effect on 26:3 PdtEtn: no significant effect
  Effect on 28:1 PdtEtn: no significant effect
[2]
  Plasma levels in subjects taking acetyl-carnitine: elevated
